Structures can show the parent of a compound that is named as a salt.
Assays:
Type in all cases: in vivo
male ICR mice [1] = test: Acute Toxicity; details: intravenous, 25 mg/kg, three male ICR mice per group
Method: (§1) Next, the pharmacological activity of typical compounds of this invention is explained in detail below. The compounds of this invention shown in Table 1 where subjected to the following test in the form of a hydrochloride to obtain the results shown in each test item.
A test compounds were intravenously administered to a group of three male ICR mice, weighing 20 to 26 g. The mortality was determined.
The test compounds were dissolved in a physiological saline solution. However, the test compound Nos. 7, 23 and 24 were dissolved in an aqueous solution containing 10% of dimethylsulfoxide and 10% of Cremophor EL and flunarizine was dissolved in 0.1M aqueous lactic acid solution.

[2] = system: vertebral blood flow (VBF); test: Vertebral Blood Flow Increasing Activity (anesthetized dogs, intravenous); details: anesthetized mongrel dogs; for ED50: Canis lupus familiaris, iv, increase of VBF by 1 mg/kg papaverine hydrochloride regarded as 100%, 2-5 per group, test compounds as hydrochloride; for Cerebral vessel selectivity: ratio of percent increase of VBF to FBF (femoral blood flow), i.v.
Method: Next, the pharmacological activity of typical compounds of this invention is explained in detail below.
- 1. Vertebral Blood Flow Increasing Activity
Mongrel dogs of both sexes weighing from 12 to 20 kg were anesthetized with sodium pentobarbital.
Vertebral blood flow (VBF) and femoral blood flow (FBF) were measured by an electromagnetic flowmeter (MFV-2100 and MFV-3100, Nihon Kohden).
Test compound solutions were injected intravenously in a volume of 0.2 ml/kg.
Also, the ratio of percent increase of VBF to FBF elicited by test compounds were indicated as an index of cerebral vessel selectivity.
The test compounds were dissolved in a physiological saline solution.
Thereafter, the resulting solution was diluted with a physiological saline solution to the desired concentration. Each study was carried out using 2-5 dogs per group.

male ICR mice [3] = test: Protective Effect against Hypobaric Hypoxia; details: Mus musculus, po, 2 h, 80 mg/kg orally, one or two hours before 210 mmHg, vehicle group (5% dimethylsulfoxide, 5% Cremophor EL) = 100, read-out: Survival time (ratio)
Method: as §1
2. Protective Effect against Hypobaric Hypoxia
Each mouse was given 80 mg/kg of test compound orally one or two hours before the mice were placed under the hypobaric condition, and the survival time was measured.
The test compounds were dissolved in a physiological saline solution. However, the test compounds Nos. 7 and 23 were dissolved in an aqueous solution containing 5% of dimethylsulfoxide and 5% of Cremophor EL, and the control compound A (flunarizine) was dissolved in a 1.5% aqueous tartaric acid solution and then they were administered. Each study was carried out using 20 mice per group.
The protective effect against hypobaric hypoxide was determined as a ratio of the survival time of the group to which the test compounds was administered to that of the group to which an aqueous solution containing 5% of dimethylsulfoxide and 5% of Cremophor EL, the latter being indicated as 100.

SMILES | mortality (male ICR mice [1]) | ED50 [2] [mg/kg] | Cerebral vessel selectivity [2] | response vs control in vivo at 80 mg/kg (male ICR mice [3]) [%]
Fc1ccc(C(c2ccc(F)cc2)N2CCN(C/C=C/c3ccccc3)CC2)cc1 [Control compd. A, Flunarizine dihydrochloride, reference compound] | no death case was found | 0.28 | 2.1 | 61
C(=C\c1ccccc1)/CN1CCN(C2c3ccccc3CCc3ncccc32)CC1 (stereo not shown) [compound 1] | no death case was found |  |  | 180
C(=C\c1ccccc1)/CN1CCN(C2c3ccccc3CCc3cnccc32)CC1 (stereo not shown) [compound 2] |  | 0.34 | 8.8 | 
COc1ccc(/C=C/CN2CCN(C3c4ccccc4CCc4ncccc43)CC2)cc1OC (stereo not shown) [compound 3] | no death case was found | 0.3 | 5.0 | 136
COc1ccccc1/C=C/CN1CCN(C2c3ccccc3CCc3ncccc32)CC1 (stereo not shown) [compound 4] |  | 0.22 | 3.0 | 
COc1ccc(/C=C/CN2CCN(C3c4ccccc4CCc4ncccc43)CC2)cc1 (stereo not shown) [compound 5] |  | 0.3 | 8.8 | 
O=[N+]([O-])c1ccc(/C=C/CN2CCN(C3c4ccccc4CCc4ncccc43)CC2)cc1 (stereo not shown) [compound 6] | no death case was found |  |  | 135
COc1ccc(/C=C/CN2CCN(C3c4ccccc4CCc4ncccc43)CC2)cc1Oc1ccccc1 (stereo not shown) [compound 7] | no death case was found | 0.11 | 16.7 | 158
COc1ccc(/C=C/CN2CCN(C3c4ccccc4CCc4ncccc43)CC2)c(OC)c1OC (stereo not shown) [compound 8] | no death case was found | 0.14 | 4.5 | 
C(=C\c1ccc2c(c1)OCO2)/CN1CCN(C2c3ccccc3CCc3ncccc32)CC1 (stereo not shown) [compound 9] |  | 0.45 | 6.9 | 155
COc1ccc(/C=C/CN2CCN(C3c4ccccc4CCc4ncccc43)CC2)cc1[N+](=O)[O-] (stereo not shown) [compound 10] | no death case was found | 0.17 | 9.1 | 
Clc1cccc(/C=C/CN2CCN(C3c4ccccc4CCc4ncccc43)CC2)c1 (stereo not shown) [compound 11] | no death case was found |  |  | 146
Clc1ccc(/C=C/CN2CCN(C3c4ccccc4CCc4ncccc43)CC2)cc1Cl (stereo not shown) [compound 12] | no death case was found | 0.3 | 5.6 | 129
Fc1ccc(/C=C/CN2CCN(C3c4ccccc4CCc4ncccc43)CC2)cc1F (stereo not shown) [compound 13] | no death case was found |  |  | 148
O=[N+]([O-])c1cccc(/C=C/CN2CCN(C3c4ccccc4CCc4ncccc43)CC2)c1 (stereo not shown) [compound 14] | no death case was found | 0.3 | 3.8 | 139
COc1cc(/C=C/CN2CCN(C3c4ccccc4CCc4ncccc43)CC2)ccc1Oc1cccnc1 (stereo not shown) [compound 15] |  | 0.18 | 4.6 | 
COc1ccc(/C=C/CN2CCN(C3c4ccccc4CCc4ncccc43)CC2)cc1Oc1cccnc1 (stereo not shown) [compound 16] |  | 0.15 | 3.6 | 
COc1ccc(/C=C/CN2CCN(C3c4ccccc4CCc4ncccc43)CC2)cc1N (stereo not shown) [compound 17] | no death case was found |  |  | 143
Clc1cccc(/C=C/CN2CCN(C3c4ccccc4CCc4ncccc43)CC2)c1Cl (stereo not shown) [compound 18] | no death case was found | 0.3 | 10.4 | 
C(=C\c1ccc2sccc2c1)/CN1CCN(C2c3ccccc3CCc3ncccc32)CC1 (stereo not shown) [compound 19] | no death case was found | 0.32 | 4.1 | 138
C(=C\c1cccc2ccsc12)/CN1CCN(C2c3ccccc3CCc3ncccc32)CC1 (stereo not shown) [compound 20] | no death case was found | 0.36 | 4.1 | 142
O=[N+]([O-])c1cccc2c(/C=C/CN3CCN(C4c5ccccc5CCc5ncccc54)CC3)cccc12 (stereo not shown) [compound 21] | no death case was found | 0.33 | 3.4 | 
C1=Cc2ncccc2C(N2CCN(C/C=C/c3ccccc3)CC2)c2ccccc21 (stereo not shown) [compound 22] |  | 0.15 | 5.4 | 
O=[N+]([O-])c1ccc2c(c1)C(N1CCN(C/C=C/c3ccccc3)CC1)c1ccccc1CC2 (stereo not shown) [compound 23] | no death case was found | 0.32 | 5.0 | 205
COc1ccccc1/C=C/CN1CCN(C2c3ccccc3CCc3ccc([N+](=O)[O-])cc32)CC1 (stereo not shown) [compound 24] | no death case was found | 0.35 | 14.3 | 
O=[N+]([O-])c1ccc2c(c1)C(N1CCN(C/C=C/c3ccccc3)CC1)c1ccccc1SC2 (stereo not shown) [compound 25] |  | 0.28 | 10.6 | 
O=[N+]([O-])c1cccc(/C=C/CN2CCN(C3c4ccccc4CCc4ccc([N+](=O)[O-])cc43)CC2)c1 (stereo not shown) [compound 26] |  | 0.28 | 4.4 | 

Source: US4948796A, “Piperazine derivative or its salt, process for producing the same and pharmaceutical composition comprising the same as active ingredient” (Toyama Chemical Co., Ltd., priority 1988, dated 1990)
